Reference: article PMC9688530, “Development of Ic-ELISA and Colloidal Gold Lateral Flow Immunoassay for the Determination of Cypermethrin in Agricultural Samples” (Biosensors, 2022)
Converted amounts (≈) assume the structure as drawn.

What was measured:
anti-CYP mAb = assay: colloidal gold LFIA strip; type: binding, mouse; parameters: key to T line color intensity: +++: More plus signs (+) mean darker red; ++-: More plus signs (+) mean darker red; +--: More plus signs (+) mean darker red; --- means no color band
Procedure: Colloidal gold particles were synthesized with trisodium citrate as a reducing agent according to our previous work. For the preparation of colloidal gold mAb, 6.65 μg/mL anti-CYP mAbs were added to the colloidal gold solution adjusted to pH 8.2 using 0.2 mol/L K2CO3 with shaking at room temperature for 1 h. BSA (1%) was used to block free colloidal gold particles. After 1 h, the mixture was centrifuged at 12,000 revolutions per minute (RPM) for 15 min to remove free anti-CYP mAbs. The centrifuged deposits were resuspended using one-tenth of the original volume of sodium borate solution (0.01 mol/L) containing 2% BSA and 3% sucrose and preserved at 4 °C.
As depicted in Figure 1A, the LFIA strip was assembled into four components. The center section of a PVC plate was affixed to an NC membrane. The sample pad and absorption pad were stuck on both ends of the PVC plate, and both overlapped with the NC membrane by 1 mm. A total of 2 mg/mL of hapten 5-BSA and 0.5 mg/mL of GAMA were sprayed onto the NC membrane as the test line and control line, respectively, with 5 mm intervals by an automatic dispenser. After drying at 37 °C for 12 h, the fabricated cards were cut into 4 mm wide LFIA strips.
One hundred microliters of the CYP standard solution and 4 μL of the colloidal gold mAb solution were added into a micropore and mixed. After 5 min, an LFIA strip was inserted into the mixture solution. During the mixed solution migration from the sample pad to the absorbent pad, colloidal gold mAb was captured by the T and C lines, resulting in the appearance of color bands within 10 min. When the T line disappeared or the color intensity of the T line was lower than that of the C line, the result was positive (Figure 1B,C). When the color intensity of the T line was not less than that of the C line, the result was negative (Figure 1D).
The sensitivity of the LFIA strip was evaluated by a series of CYP standard solutions (0.7, 0.6, 0.5, 0.4, 0.3, 0.2, 0.1, 0 μg/mL). For qualitative analysis, the sensitivity of the LFIA strip was appraised by the visual LOD (vLOD) and the cut-off value. The vLOD is the lowest concentration of CYP at which the lighter color of the T line is observed compared to the C line. The cut-off value is the minimum CYP concentration at which no color band appears on the T line.
The CRs of the LFIA were calculated with the following equation:CR (%) = (vLOD of CYP/vLOD of analogues) × 100%.

monoclonal antibody = tested on: monoclonal antibody; parameters: method as in doi:10.1080/09540105.2013.794328; conditions: ic-ELISA based on a monoclonal antibody; cited from earlier work
[1] = parameters: method as in doi:10.1016/j.cropro.2009.01.003; conditions: cited from earlier work

## CC1(C)C(C=C(Cl)Cl)C1C(=O)OC(C#N)c1cccc(Oc2ccccc2)c1 (stereo not shown) [CYP, Cypermethrin]
anti-CYP mAb; 0.3 µg/mL, Acetone 10 v%
  T line color intensity: +++
anti-CYP mAb; 0.3 µg/mL, Acetone 20 v%
  T line color intensity: +++
anti-CYP mAb; 0.3 µg/mL, Acetone 30 v%
  T line color intensity: ++-
anti-CYP mAb; 0.3 µg/mL, Acetone 40 v%
  T line color intensity: +--
anti-CYP mAb; 0.3 µg/mL, Acetonitrile 10 v%
  T line color intensity: +++
anti-CYP mAb; 0.3 µg/mL, Acetonitrile 20 v%
  T line color intensity: ++-
anti-CYP mAb; 0.3 µg/mL, Acetonitrile 30 v%
  T line color intensity: +--
anti-CYP mAb; 0.3 µg/mL, Acetonitrile 40 v%
  T line color intensity: ---
anti-CYP mAb; 0.3 µg/mL, Dimethyl sulfoxide 10 v%
  T line color intensity: ++-
anti-CYP mAb; 0.3 µg/mL, Dimethyl sulfoxide 20 v%
  T line color intensity: +++
anti-CYP mAb; 0.3 µg/mL, Dimethyl sulfoxide 30 v%
  T line color intensity: ++-
anti-CYP mAb; 0.3 µg/mL, Dimethyl sulfoxide 40 v%
  T line color intensity: ++-
anti-CYP mAb; 0.3 µg/mL, Methanol 10 v%
  T line color intensity: +++
anti-CYP mAb; 0.3 µg/mL, Methanol 20 v%
  T line color intensity: +++
anti-CYP mAb; 0.3 µg/mL, Methanol 30 v%
  T line color intensity: ++-
anti-CYP mAb; 0.3 µg/mL, Methanol 40 v%
  T line color intensity: +--
anti-CYP mAb; 0.3 µg/mL, Na+ 0.07 mol/L
  T line color intensity: +++
anti-CYP mAb; 0.3 µg/mL, Na+ 0.14 mol/L
  T line color intensity: +++
anti-CYP mAb; 0.3 µg/mL, Na+ 0.25 mol/L
  T line color intensity: +++
anti-CYP mAb; 0.3 µg/mL, Na+ 0.5 mol/L
  T line color intensity: ++-
anti-CYP mAb; 0.3 µg/mL, Na+ 1 mol/L
  T line color intensity: ++-
anti-CYP mAb; 0.3 µg/mL, Na+ 2 mol/L
  T line color intensity: +--
anti-CYP mAb; 0.3 µg/mL, pH 6
  T line color intensity: +++
anti-CYP mAb; 0.3 µg/mL, pH 7
  T line color intensity: +++
anti-CYP mAb; 0.3 µg/mL, pH 7.4
  T line color intensity: +++
anti-CYP mAb; 0.3 µg/mL, pH 8
  T line color intensity: ++-
anti-CYP mAb; 0.3 µg/mL, pH 9
  T line color intensity: +--
anti-CYP mAb; 0.4 µg/mL, Acetone 10 v%
  T line color intensity: ++-
anti-CYP mAb; 0.4 µg/mL, Acetone 20 v%
  T line color intensity: +--
anti-CYP mAb; 0.4 µg/mL, Acetone 30 v%
  T line color intensity: +--
anti-CYP mAb; 0.4 µg/mL, Acetone 40 v%
  T line color intensity: ---
anti-CYP mAb; 0.4 µg/mL, Acetonitrile 10 v%
  T line color intensity: ++-
anti-CYP mAb; 0.4 µg/mL, Acetonitrile 20 v%
  T line color intensity: +--
anti-CYP mAb; 0.4 µg/mL, Acetonitrile 30 v%
  T line color intensity: +--
anti-CYP mAb; 0.4 µg/mL, Acetonitrile 40 v%
  T line color intensity: ---
anti-CYP mAb; 0.4 µg/mL, Dimethyl sulfoxide 10 v%
  T line color intensity: +--
anti-CYP mAb; 0.4 µg/mL, Dimethyl sulfoxide 20 v%
  T line color intensity: +--
anti-CYP mAb; 0.4 µg/mL, Dimethyl sulfoxide 30 v%
  T line color intensity: +--
anti-CYP mAb; 0.4 µg/mL, Dimethyl sulfoxide 40 v%
  T line color intensity: +--
anti-CYP mAb; 0.4 µg/mL, Methanol 10 v%
  T line color intensity: +--
anti-CYP mAb; 0.4 µg/mL, Methanol 20 v%
  T line color intensity: +--
anti-CYP mAb; 0.4 µg/mL, Methanol 30 v%
  T line color intensity: +--
anti-CYP mAb; 0.4 µg/mL, Methanol 40 v%
  T line color intensity: +--
anti-CYP mAb; 0.4 µg/mL, Na+ 0.07 mol/L
  T line color intensity: ++-
anti-CYP mAb; 0.4 µg/mL, Na+ 0.14 mol/L
  T line color intensity: ++-
anti-CYP mAb; 0.4 µg/mL, Na+ 0.25 mol/L
  T line color intensity: ++-
anti-CYP mAb; 0.4 µg/mL, Na+ 0.5 mol/L
  T line color intensity: ++-
anti-CYP mAb; 0.4 µg/mL, Na+ 1 mol/L
  T line color intensity: ++-
anti-CYP mAb; 0.4 µg/mL, Na+ 2 mol/L
  T line color intensity: +--
anti-CYP mAb; 0.4 µg/mL, pH 6
  T line color intensity: ++-
anti-CYP mAb; 0.4 µg/mL, pH 7
  T line color intensity: +--
anti-CYP mAb; 0.4 µg/mL, pH 7.4
  T line color intensity: ++-
anti-CYP mAb; 0.4 µg/mL, pH 8
  T line color intensity: +--
anti-CYP mAb; 0.4 µg/mL, pH 9
  T line color intensity: ---
anti-CYP mAb; 0.6 µg/mL, Acetone 10 v%
  T line color intensity: +--
anti-CYP mAb; 0.6 µg/mL, Acetone 20 v%
  T line color intensity: +--
anti-CYP mAb; 0.6 µg/mL, Acetone 30 v%
  T line color intensity: ---
anti-CYP mAb; 0.6 µg/mL, Acetone 40 v%
  T line color intensity: ---
anti-CYP mAb; 0.6 µg/mL, Acetonitrile 10 v%
  T line color intensity: +--
anti-CYP mAb; 0.6 µg/mL, Acetonitrile 20 v%
  T line color intensity: ---
anti-CYP mAb; 0.6 µg/mL, Acetonitrile 30 v%
  T line color intensity: ---
anti-CYP mAb; 0.6 µg/mL, Acetonitrile 40 v%
  T line color intensity: ---
anti-CYP mAb; 0.6 µg/mL, Dimethyl sulfoxide 10 v%
  T line color intensity: ---
anti-CYP mAb; 0.6 µg/mL, Dimethyl sulfoxide 20 v%
  T line color intensity: ---
anti-CYP mAb; 0.6 µg/mL, Dimethyl sulfoxide 30 v%
  T line color intensity: ---
anti-CYP mAb; 0.6 µg/mL, Dimethyl sulfoxide 40 v%
  T line color intensity: ---
anti-CYP mAb; 0.6 µg/mL, Methanol 10 v%
  T line color intensity: ---
anti-CYP mAb; 0.6 µg/mL, Methanol 20 v%
  T line color intensity: +--
anti-CYP mAb; 0.6 µg/mL, Methanol 30 v%
  T line color intensity: +--
anti-CYP mAb; 0.6 µg/mL, Methanol 40 v%
  T line color intensity: ---
anti-CYP mAb; 0.6 µg/mL, Na+ 0.07 mol/L
  T line color intensity: ---
anti-CYP mAb; 0.6 µg/mL, Na+ 0.14 mol/L
  T line color intensity: +--
anti-CYP mAb; 0.6 µg/mL, Na+ 0.25 mol/L
  T line color intensity: +--
anti-CYP mAb; 0.6 µg/mL, Na+ 0.5 mol/L
  T line color intensity: +--
anti-CYP mAb; 0.6 µg/mL, Na+ 1 mol/L
  T line color intensity: +--
anti-CYP mAb; 0.6 µg/mL, Na+ 2 mol/L
  T line color intensity: ---
anti-CYP mAb; 0.6 µg/mL, pH 6
  T line color intensity: ---
anti-CYP mAb; 0.6 µg/mL, pH 7
  T line color intensity: ---
anti-CYP mAb; 0.6 µg/mL, pH 7.4
  T line color intensity: ---
anti-CYP mAb; 0.6 µg/mL, pH 8
  T line color intensity: ---
anti-CYP mAb; 0.6 µg/mL, pH 9
  T line color intensity: ---
anti-CYP mAb; optimal buffer
  cut-off value: 0.6 µg/mL
  visual limit of detection (vLOD): 0.3 µg/mL
Monoclonal antibody
  IC50: 1.7 ng/mL (≈ 4.08 nM)
[1]
  minimum detection concentration: 800 ng/mL
